Tests used:
dyspnea = assay: treatment of race horses with dyspnea; format: in vivo, horse; details: eleven race horses, intravenous 50 mg/day, one week
Protocol: Eleven race horses manifesting dyspnea of variable degree, accompanied of great sensibility in the movements and, in the majority of the cases respiratory anxiety, coughs and mucous-purulent nasal flux, were treated with an intravenous dose of Bobel-24 of 50 mg/day during one week.

[1] = solubility in aqueous medium; format: physicochemical; details: in words
Protocol: Due to the insolubility of Bobel-24 in aqueous medium, it was previously dissolved in a 50% solution of lysine. An anionic sulfonated detergent was used as foaming agent, containing 10-15% tegobetaine, 20-30% texapone N-40, and water. A 2% shampoo was prepared with the following composition: 2 g Bobel-24, 12 ml of 50% aqueous solution of lysine, 48 ml of water, 40 ml of the anionic sulfonated detergent.

[2] = test system: lactatedehydrogenase (LDH); assay: liberation of lactatedehydrogenase (LDH) into the medium; details: check for cellular lysis
Text: In order to show the 5-LO inhibiting activity of the products of the present invention, a specific test based on human polymorphonuclear leukocytes is chosen.

herpes simplex = assay: test for antiviral activity in vitro
Text: (§1) The 2,4-disubstituted phenol derivatives of the present invention are anti-herpetic agents in vivo, since they eliminate the symptoms of patients suffering from different types of herpes simplex (genital herpes, herpes of mouth and lips, recurrent herpes), and of patients suffering from herpes zoster. There is no relapse after leaving the treatment. The products are active both intramuscularly and topically, the first via being preferred.
A total of 25 patients with symptoms of different herpes simplex (genital, buccal or reincident) were treated with 15 mg/day of Bobel-24, intramuscularly, during a month, with the following results: with the ten patients of genital herpes simplex, the results was excellent in 7 cases, good in 2 and regular in 1; of the twelve with buccal herpes simplex it was excellent in 9 cases, good in 2 and regular in 1; of the 3 with reincident herpes it was excellent in 2 of the cases and good in 1. […] The case of genital herpes which resulted "regular" was an obese and diabetic […], and although there was an improvement there was also reincidency. Independently an test for antiviral activity in vitro resulted negative.

herpes zoster = assay: in vivo activity in patients with herpes zoster; design: species or system human (patients); details: of 21 patients; 15 mg/day intramuscular injection, a month
Text: as §1
A total of 21 patients with clear symptoms of herpes zoster were treated with 15 mg/day of Bobel-24, via intramuscular injection, during a month. The results concerning the disappearance of the symptoms were the following: excellent in 18 cases, good in 2 cases, and regular in 1 case.

bacterial strains = assay: mutagenic activity in four bacterial strains; design: species or system bacteria
[3] = test system: canine seborrheic dermatitis; assay: clinical trial on canine seborrheic dermatitis; format: in vivo, dog; design: key: +++: very good response, clinically cured; ++: good response, marked lowering in the clinical signs; +: moderate response, improvement; -: negative response or no apparent improvement; details: weekly bath 2% shampoo, 15 days
Protocol: The animals had been diagnosed to suffer from seborrheic dermatitis, and the diagnosis was confirmed by a biopsy. The treatment consisted of a weekly bath with a 2% Bobel-24 shampoo and evaluation of the treatment after 15 days. The efficiency of the treatment was analyzed evaluating the following therapeutic symptoms; removal of scabs and scales, greasiness reduction, sheborrheic odor reduction, relieve of the pruritus, and antiinflammatory effect. […] In view of the results the following conclusions were reached: […]

dogs = assay: acute toxicity in dogs; format: in vivo, dog; details: after 28 days at doses of 200, 300, 400, 1000 and 2000 mg/kg
canine arthrosis = assay: clinical trial on canine arthrosis; format: in vivo, dog; design: key: +++: very good response, total recovery; ++: good response, functionability recovery; +: moderate response, improvement; -: negative response or no apparent improvement; details: 4 mg/kg day orally, 45 days
Protocol: After the diagnosis, each animal was treated with Bobel capsules during 45 days, with a follow up every 15 days. Blood, synovial liquid and urine samples were taken at the beginning and at the end of the treatment in order to perform the following tests: Synovial liquid analysis (cytology, cytokines 1,6,8 and TNF); LTB4; LTC4; PGE2; hematic count and leukocyte content; standard serum biochemistry; urine sediment; Rose-Wealer test; and radiology control. The methodology for clinical validation involved applying evaluating uniform parameters and classifying the results according to the following notations: (+++)=very good response, total recovery; (++)=good response, functionability recovery; (+)=moderate response, improvement; (-)=negative response or no apparent improvement.

bursitis = assay: treatment of horses with bursitis; format: in vivo, horse; details: seven young horses, 15 mg/day intraarticular infiltration

## Oc1c(I)cc(I)cc1I [Bobel-24, 2,4,6-triiodophenol]
dyspnea
  horses suffering relapse: None of the horses suffered relapse
  improvement: The improvement was quite high
  time to disappearance of all the symptoms: ≤ 9 days
  time to reincorporation to training, without any sequel: 21 days
[1]
  solubility in aqueous medium: insolubility
[2]
  LDH liberation into the medium: cannot be attributed to cellular lysis
Herpes simplex
  antiviral activity in vitro: negative
Herpes zoster
  cases with excellent result, herpes zoster: 18 cases
  cases with good result, herpes zoster: 2 cases
  cases with regular result, herpes zoster: 1 cases
Bacterial strains
  mutagenic activity: No mutagenic activity
[3]; b363 Poodle 6, b364 Mongrel 14, b374 Mongrel 10, b376 Belgian shepherd 10, b382 Poodle 9, b392 Mongrel 5 years
  Evolution, etiology allergic: ++
[3]; b369 German shepherd 10, b377 Pekinese 11, b379 German shepherd 3 years
  Evolution, etiology leishmania: ++
dogs
  acute toxicity in dogs: not observed
Canine arthrosis; Doge 3 years
  Evolution, spondolytis: +++
Canine arthrosis; German shepherd 2 years
  Evolution, broken muscle: +
Canine arthrosis; German shepherd 10 years
  Evolution, generalized arthrosis: ++
Canine arthrosis; Mongrel 14 years
  Evolution, rotular arthrosis: ++
Canine arthrosis; Poodle 11 years
  Evolution, degenerative arthrosis: +++
Canine arthrosis; Poodle 15 years
  Evolution, broken crossed ligament: +
Canine arthrosis; b309 Mastif 11 years, b317 Mongrel 13 years
  Evolution, equine cauda: +++
Canine arthrosis; b312 Rottwailer 1 year, b322 German shepherd 9 years
  Evolution, arthrosis: +++
bursitis
  reduction in inflammation: a reduction in the inflammation was obtained

— patent US5985937A, “Use of 2,4-distributed phenol derivatives as 5-lipoxygenase inhibitors” (priority 1994, dated 1999)
